The test system of data set [1] is HEK293 (human embryonic kidney cells). Nature of the data set: Cytotoxicity assay HEK293. In kind it is cell-based. The note with it: mean (n = 2). Here is the method: (§1) Cytotoxicity assays were conducted according to previously reported protocols.
Data set [2] can be described thus: Cytotoxicity assay HEK293. In kind it is cell-based, human. The note with it: human, HEK293 cells, mean (n = 2), read-out: Cyto. IC50 (concentration of compound at 50% cytotoxicity). Here is the method: as §1
A further data set has as its system MRSA ATCC 43300. Nature of the data set: Antimicrobial susceptibility (MIC), MRSA. In kind it is cell-based. The note with it: Staphylococcus aureus; MRSA ATCC 43300; mean (n = 2); read-out: MIC MRSA. In outline: (§2)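 MICs against E. coli ATCC 25922 and P. aeruginosa ATCC 27853 followed previously reported protocols. MRSA ATCC 43300 and C. albicans ATCC 90028 were tested by CO-ADD under its standard protocols.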

Data set [3] deals with C. albicans ATCC 90028. Nature of the data set: Antifungal susceptibility (MIC), C. albicans. In kind it is cell-based. The note with it: Candida albicans, ATCC90028, mean (n = 2). The essentials:
as §2

Data set [4] has as its system P. aeruginosa ATCC 27853. Nature of the data set: Antibiotic potentiation (MIC of antibiotics in the presence of synergizing compounds), P. aeruginosa. Particulars: for Conc (µM) for Potentiation of doxycycline: concentration required to restore doxycycline activity at 2 µg/mL (4.5 µM) against P. aeruginosa ATCC 27853. In kind it is cell-based, Pseudomonas aeruginosa.

Data set [5] concerns P. aeruginosa ATCC 27853. Nature of the data set: Antimicrobial susceptibility (MIC), P. aeruginosa. In kind it is cell-based. The note with it: Pseudomonas aeruginosa, ATCC27853, mean (n = 3), read-out: MIC P. a. The essentials:
as §2

Data set [6] relates to S. aureus ATCC 25923. As to the kind of experiment: Antimicrobial susceptibility (MIC), S. aureus. In kind it is cell-based, Staphylococcus aureus. Particulars: Staphylococcus aureus, ATCC25923; S. aureus ATCC 25923; mean (n = 3).
Data set [7] concerns E. coli ATCC 25922. Nature of the data set: Antimicrobial susceptibility (MIC), E. coli. In kind it is cell-based. The note with it: Escherichia coli, ATCC25922, mean (n = 3). In outline:
as §2

The test system of the next data set is human red blood cells. As to the kind of experiment: Hemolytic assay. In kind it is cell-based. Particulars: mean (n = 2). As to the method: Hemolysis assays were conducted according to previously reported protocols.
The subject of data set [8] is P. aeruginosa ATCC 27853. The note with it: cited from earlier work; for Conc (µM) for Potentiation of doxycycline: doxycycline at 2 µg/mL (4.5 µM), P. aeruginosa ATCC 27853, ref Cadelis et al. [16].
The subject of data set [9] is C. albicans ATCC 90028. The arrangement: method as in Cadelis et al. [16]. The note with it: ref Cadelis et al. [16]; cited from earlier work.
In data set [10] the test system is S. aureus ATCC 25923. The note with it: cited from earlier work; for MIC S. a: S. aureus ATCC 25923, ref Cadelis et al. [16].
For data set [11], the system named is E. coli ATCC 25922. The arrangement: method as in Cadelis et al. [16]. The note with it: ref Cadelis et al. [16]; cited from earlier work.
Data set [12] concerns HEK293 (human embryonic kidney cells). Particulars: cited from earlier work.
Data set [13] deals with P. aeruginosa ATCC 27853. The arrangement: method as in Cadelis et al. [16]. Particulars: ref Cadelis et al. [16]; cited from earlier work.
For the next data set, the system named is A. baumannii AYE. Nature of the data set: Antibiotic potentiation, A. baumannii. The note with it: mean (n = 3). In kind it is cell-based, Acinetobacter baumannii. Here is the method: (§3) Antibiotic enhancing activities were determined according to previously reported protocols.
For data set [14], the system named is E. coli ATCC 25922. As to the kind of experiment: Antibiotic potentiation, E. coli. In kind it is cell-based, Escherichia coli. The note with it: mean (n = 3). As to the method:
as §3

Data set [15] has as its system Klebsiella pneumoniae ST258. As to the kind of experiment: Antibiotic potentiation, K. pneumoniae. In kind it is cell-based. The note with it: mean (n = 3). As to the method:
as §3

Data set [16] concerns rat skeletal myoblast cell line L6. The arrangement: method as in PMID 30975502. The note with it: ref [15], read-out: IC50 cytotoxicity; cited from earlier work.
For the next data set, the system named is Cryptococcus neoformans. The arrangement: method as in PMID 30975502. Particulars: fungus Cryptococcus neoformans; ref [15]; cited from earlier work.
[17] abbreviates: HEK293, ref Cadelis et al. [16], read-out: Cyto. IC50 (concentration of compound at 50% cytotoxicity).

Data on seven compounds can be found in publication PMC10302047, “Structure–Activity Relationship Studies of Indolglyoxyl-Polyamine Conjugates as Antimicrobials and Antibiotic Potentiators” (Pharmaceuticals, 2023).

In general, MIC refers to the lowest concentration that inhibits growth of the organism.

SMILES strings stand for the structures. Converted amounts (≈) assume the structure as drawn. “Also recorded” adds a separate entry of the source. Like-named read-outs stand apart in the source and are kept apart here. Marks after values point to notes of the source that are not given here.

Consider `Cc1cccc2c(C(=O)C(=O)NCCCNCCCCCCCCNCCCNC(=O)C(=O)c3c[nH]c4c(C)cccc34)c[nH]c12.O=C(O)C(F)(F)F.O=C(O)C(F)(F)F` [Compound 23c, N^1,N^8-Bis(3-(2-(7-methyl-1H-indol-3-yl)-2-oxoacetamido)propyl)octane-1,8-diaminium 2,2,2-trifluoroacetate], for which the “Cyto. IC50 (concentration of compound at 50% cytotoxicity)” value in data set [1] is listed as “non-cytotoxic; also recorded: no detectable cytotoxicity”. Moreover, in data set [2], the IC50 was greater than 37 µM. Besides, the MIC with MRSA ATCC 43300 was no more than 0.29 µM; in the data set with C. albicans ATCC 90028 [3] it was greater than 37 µM; in the data set with P. aeruginosa ATCC 27853 [5] it was greater than 230 µM; against S. aureus ATCC 25923 [6] it was 7.3 µM; against E. coli ATCC 25922 [7], 29 µM. Further, the “Conc (µM) for Potentiation of doxycycline” value (shortened to “Conc (µM) for Potentiation”) with P. aeruginosa ATCC 27853 [4] amounted to 230 µM.

Regarding `Cc1cccc2c(C(=O)C(=O)NCCCNCCCCNCCCNC(=O)C(=O)c3c[nH]c4c(C)cccc34)c[nH]c12` [Compound 8], the “Hem. HC10 (concentration of compound at 10% hemolytic activity)” value in the data set with human red blood cells is listed as greater than 40 µM. Moreover, in the data set on P. aeruginosa ATCC 27853 [8], the “Conc (µM) for Potentiation” value was 6.25 ^b µM. In addition, the MIC in the data set with MRSA ATCC 43300 was 20 µM (≈ 11.5 µg/mL). In addition, in the data set with C. albicans ATCC 90028 [9], the “MIC C. a” value is given as >40.0 ^h µM. Moreover, the “MIC S. a” value in the data set on S. aureus ATCC 25923 [10] was 25 ^h µM. The “MIC E. c” value with E. coli ATCC 25922 [11] is >200 ^h µM. For the same compound, the IC50 in data set [12] (setting [17]) was greater than 40 µM. Besides, the “MIC P. a” value in the data set on P. aeruginosa ATCC 27853 [13] is >200 ^h µM.

Turning to `O=C(NCCCNCCCCCCNCCCNC(=O)C(=O)c1c[nH]c2c(F)cccc12)C(=O)c1c[nH]c2c(F)cccc12.O=C(O)C(F)(F)F.O=C(O)C(F)(F)F` [Compound 21a, N^1,N^6-Bis(3-(2-(7-fluoro-1H-indol-3-yl)-2-oxoacetamido)propyl)hexane-1,6-diaminium 2,2,2-trifluoroacetate], the “Hem. HC10 (concentration of compound at 10% hemolytic activity)” value with human red blood cells is listed as >38 ^e µM. Moreover, the results for the “Concentration (µM) for Potentiation of chloramphenicol” value (with A. baumannii AYE (chloramphenicol 2 µg/mL); in the data set with E. coli ATCC 25922 [14] (chloramphenicol 2 µg/mL); in data set [15] (chloramphenicol 2 µg/mL)) were 200 µM, greater than 200 µM and greater than 200 µM, respectively. Besides, the “Concentration (µM) for Potentiation of doxycycline” value was determined as 12.5 µM in the data set on A. baumannii AYE (doxycycline 2 µg/mL), 1.56 µM with E. coli ATCC 25922 [14] (doxycycline 2 µg/mL) and 200 µM in data set [15] (doxycycline 2 µg/mL). Moreover, the “Concentration (µM) for Potentiation of erythromycin” value with A. baumannii AYE (erythromycin 2 µg/mL) is recorded as 100 µM; in the data set with P. aeruginosa ATCC 27853 [4] (P. aeruginosa ATCC 27853, erythromycin 2 µg/mL, mean (n = 3)) it was 100 µM; with E. coli ATCC 25922 [14] (erythromycin 2 µg/mL) it was 200 µM; in [15] (erythromycin 2 µg/mL), greater than 200 µM. For the same compound, the “Concentration (µM) for Potentiation of nalidixic acid” value is given as 200 µM in the data set on A. baumannii AYE (nalidixic acid 2 µg/mL), 200 µM in the data set on E. coli ATCC 25922 [14] (nalidixic acid 2 µg/mL) and greater than 200 µM in data set [15] (nalidixic acid 2 µg/mL). Further, the “Concentration (µM) for Potentiation, no antibiotic” value with A. baumannii AYE (no antibiotic) is 100 µM. The IC50 in data set [2] was determined as 12 µM. The MIC was 19.1 µM in the data set on MRSA ATCC 43300; greater than 38 µM in the data set with C. albicans ATCC 90028 [3]; 240 µM in the data set with P. aeruginosa ATCC 27853 [5]; 7.5 µM against S. aureus ATCC 25923 [6]; 240 µM against E. coli ATCC 25922 [7].

On to `O=C(NCCCNCCCCNCCCNC(=O)C(=O)c1c[nH]c2cc(Br)ccc12)C(=O)c1c[nH]c2cc(Br)ccc12` [Compound 1], for which, in the data set with P. aeruginosa ATCC 27853 [8] (Pseudomonas aeruginosa, result in words, ref [15]), the “antibiotic enhancement in combination with doxycycline” value was “strong antibiotic enhancement effect”. Also, the IC50 was 7.7 µM in data set [16] and 5.1 µM in data set [12] (human embryonic kidney cell line HEK293, ref [15], read-out: IC50 cytotoxicity). Moreover, the MIC with Cryptococcus neoformans is 1.1 µM (≈ 0.773 µg/mL); in the data set on S. aureus ATCC 25923 [10] (Staphylococcus aureus ATCC 25923, ref [15]), 6.25 µM (≈ 4.39 µg/mL).

Regarding `Cc1cccc2c(C(=O)C(=O)NCCCNCCCCCCCNCCCNC(=O)C(=O)c3c[nH]c4c(C)cccc34)c[nH]c12.O=C(O)C(F)(F)F.O=C(O)C(F)(F)F` [Compound 23b, N^1,N^7-Bis(3-(2-(7-methyl-1H-indol-3-yl)-2-oxoacetamido)propyl)heptane-1,7-diaminium 2,2,2-trifluoroacetate], the “Cyto. IC50 (concentration of compound at 50% cytotoxicity)” value in [1] is given as “non-cytotoxic; also recorded: no detectable cytotoxicity”. Further, the IC50 in [2] is greater than 38 µM. The MIC is no more than 0.3 µM with MRSA ATCC 43300; greater than 38 µM in the data set on C. albicans ATCC 90028 [3]; greater than 240 µM with P. aeruginosa ATCC 27853 [5]; 14.8 µM in the data set with S. aureus ATCC 25923 [6]; 120 µM in the data set on E. coli ATCC 25922 [7]. Further, in the data set on P. aeruginosa ATCC 27853 [4], the “Conc (µM) for Potentiation” value came out at 240 µM.

As for `Cc1ccc2[nH]cc(C(=O)C(=O)NCCCNCCCCNCCCNC(=O)C(=O)c3c[nH]c4ccc(C)cc34)c2c1` [Compound 5], the “Hem. HC10 (concentration of compound at 10% hemolytic activity)” value in the data set with human red blood cells was greater than 40 µM. Also, the “Conc (µM) for Potentiation” value in the data set with P. aeruginosa ATCC 27853 [8] was 6.25 ^b µM. Besides, the MIC in the data set with MRSA ATCC 43300 came to 20 µM (≈ 11.5 µg/mL). For the same compound, the “MIC C. a” value with C. albicans ATCC 90028 [9] is >40.0 ^h µM. In the data set on S. aureus ATCC 25923 [10], the “MIC S. a” value was 25 ^h µM. Moreover, the “MIC E. c” value with E. coli ATCC 25922 [11] was 200 ^h µM. In addition, the IC50 in data set [12] (setting [17]) was greater than 40 µM. Further, in the data set on P. aeruginosa ATCC 27853 [13], the “MIC P. a” value is 100 ^h µM.

For the compound `COc1ccc2[nH]cc(C(=O)C(=O)NCCCNCCCCCCNCCCNC(=O)C(=O)c3c[nH]c4ccc(OC)cc34)c2c1.O=C(O)C(F)(F)F.O=C(O)C(F)(F)F` [Compound 19a, N^1,N^6-Bis(3-(2-(5-methoxy-1H-indol-3-yl)-2-oxoacetamido)propyl)hexane-1,6-diaminium 2,2,2-trifluoroacetate], the “Cyto. IC50 (concentration of compound at 50% cytotoxicity)” value in [1] is “non-toxic”. Moreover, the IC50 in data set [2] is greater than 37 µM. For the same compound, the MIC with MRSA ATCC 43300 was greater than 37 µM; against C. albicans ATCC 90028 [3], greater than 37 µM; in the data set with P. aeruginosa ATCC 27853 [5] it was greater than 200 µM; in the data set on S. aureus ATCC 25923 [6] it was 29 µM; against E. coli ATCC 25922 [7], greater than 200 µM. For the same compound, in the data set with P. aeruginosa ATCC 27853 [4] (P. aeruginosa ATCC 27853, chloramphenicol 2 µg/mL, mean (n = 3)), the “Concentration (µM) for Potentiation of chloramphenicol” value turned out to be 58 µM. The “Concentration (µM) for Potentiation of minocycline” value in the data set on P. aeruginosa ATCC 27853 [4] (P. aeruginosa ATCC 27853, minocycline 2 µg/mL, mean (n = 3)) stood at 14.5 µM. Further, the “Concentration (µM) for Potentiation, no antibiotic” value in the data set with P. aeruginosa ATCC 27853 [4] (P. aeruginosa ATCC 27853, no antibiotic, mean (n = 3)) is listed as greater than 200 µM. The “Conc (µM) for Potentiation” value in the data set with P. aeruginosa ATCC 27853 [4] was 7.3 µM.
